Reference: patent US8778896B2, “Levoisovalerylspiramycin I, II or III, preparations, preparation methods and uses thereof” (Shenyang Tonglian Group Co., Ltd., priority 2010, dated 2014)
Converted amounts (≈) assume the structure as drawn.

Experiments:
[1] = system: streptococcus pneumoniae18; assay: Curative effect on mouse with abdominal infection (ED50); type: in vivo, streptococcus pneumoniae; conditions: Streptococcus, 168 h, streptococcus pneumoniae18, challenging dose 9.6 × 10^4 CFU/0.5 ml, deaths in 7 days, Bliss, read-out: ED50
Protocol: (§1) Test method: preparation of infection bacterial liquid: taking out the test bacterial liquid which is kept in a refrigerator at −80[…] to room temperature for about 1 h, then inoculating streptococcus pneumonia, pyogenic streptococcus and enterococcus absorbing 0.1 ml bacterial liquid respectively to 2 ml MH broth (add 10% inactivated horse serum), and inoculating 0.1 ml bacterial liquid of staphylococcus aureus to 2 ml MH broth according to the same method above; putting it in an incubator at 37[…] to be cultivated for 18 h, to obtain original bacterial liquid; diluting the original bacterial liquid with 5% gastric mucin to make animals infected with 100% lethal bacteria, to obtain infection bacterial liquid.
(§2) The clinical route of administration of carrimycin is proposed to be oral administration, thus intragastric administration is adopted in carrimychin test. Levoisovalerylspiramycin I (obtained in Embodiment 1) and of crystalline compound of levoisovalerylspiramycin I (prepared in Embodiment 27) are fed to animals via […].
(§3) After the mice are infected, respectively feed each mouse 0.2 ml via intragastric administration at 0.5 to 6 h, and they have no adverse reaction. Observe the number of deaths in 7 days, and calculate the 50% effective dose (ED50) of each drug for the infected mouse and compare the protective effect of drugs by Bliss program.

[2] = system: streptococcus pneumoniae3; assay: as above; type: in vivo, streptococcus pneumoniae; conditions: Streptococcus, 168 h, streptococcus pneumoniae3, challenging dose 6.4 × 10^4 CFU/0.5 ml, deaths in 7 days, Bliss, read-out: ED50
Protocol: as §1, §2, §3

[3] = system: streptococcus pneumoniae57; assay: as above; type: in vivo, streptococcus pneumoniae; conditions: Streptococcus, 168 h, streptococcus pneumoniae57, challenging dose 8.8 × 10^4 CFU/0.5 ml, deaths in 7 days, Bliss, read-out: ED50
Protocol: as §1, §2, §3

[4] = system: pyogenic streptococcus 102; assay: as above; type: in vivo; conditions: Streptococcus, 102, 168 h, pyogenic streptococcus 102, challenging dose 7.8 × 10^4 CFU/0.5 ml, deaths in 7 days, Bliss, read-out: ED50
Protocol: as §1, §2, §3

[5] = system: pyogenic streptococcus 119; assay: as above; type: in vivo; conditions: Streptococcus, 119, 168 h, pyogenic streptococcus 119, challenging dose 4.9 × 10^4 CFU/0.5 ml, deaths in 7 days, Bliss, read-out: ED50
Protocol: as §1, §2, §3

[6] = system: pyogenic streptococcus 772; assay: as above; type: in vivo; conditions: Streptococcus, 772, 168 h, pyogenic streptococcus 772, challenging dose 6.9 × 10^3 CFU/0.5 ml, deaths in 7 days, Bliss, read-out: ED50
Protocol: as §1, §2, §3

[7] = system: enterococcus32; assay: as above; type: in vivo, enterococcus; conditions: Enterococcus, 168 h, enterococcus32, challenging dose 5.4 × 10^4 CFU/0.5 ml, deaths in 7 days, Bliss, read-out: ED50
Protocol: as §1, §2, §3

[8] = system: streptococcus pneumoniae57; assay: MIC against the infecting test organism; type: cell-based, streptococcus pneumoniae; conditions: read-out: MIC
[9] = system: pyogenic streptococcus 102; assay: MIC against the infecting test organism; type: cell-based; conditions: read-out: MIC
[10] = system: pyogenic streptococcus 119; assay: MIC against the infecting test organism; type: cell-based; conditions: read-out: MIC
[11] = system: enterococcus32; assay: MIC against the infecting test organism; type: cell-based, enterococcus; conditions: Enterococcus, read-out: MIC
[12] = system: staphylococcus aureus16; assay: MIC against the infecting test organism; type: cell-based, staphylococcus aureus; conditions: read-out: MIC
[13] = system: staphylococcus aureus21; assay: MIC against the infecting test organism; type: cell-based, staphylococcus aureus; conditions: read-out: MIC
[14] = system: pyogenic streptococcus (93); assay: Clinical isolates, agar double dilution method; type: cell-based; conditions: 93 clinical isolates of pyogenic streptococcus; for MIC50: read-out: MIC50; for MIC90: read-out: MIC90
[15] = system: enterococcus (106); assay: Clinical isolates, agar double dilution method; type: cell-based; conditions: 106 clinical isolates of enterococcus; for MIC50: read-out: MIC50; for MIC90: read-out: MIC90
[16] = system: hemophilus influenzae (37); assay: Clinical isolates, agar double dilution method; type: cell-based; conditions: 37 clinical isolates of hemophilus influenzae; for MIC50 / MIC90: Haemophilus influenzae; for MIC50: read-out: MIC50; for MIC90: read-out: MIC90
[17] = system: Chlamydia Pneumoniae CWL-029; assay: Chlamydia in vitro MIC, HEp-2 cells, immunofluorescence; type: cell-based; conditions: Chlamydia pneumoniae, 72 h, Chlamydia Pneumoniae CWL-029, HEp-2 cells, read-out: MIC
[18] = system: Mycoplasma Urealyticum and Mycoplasma Pneumoniae strains; assay: Mycoplasma in vitro MIC (U-PPLO broth); type: cell-based; conditions: for Uu resistant effect: in words
Protocol: 1. Test methods: adding U-PPLO 0.8 ml to each pore of aseptic 12-pore cell culture plate (adding 0.9 ml to inoculum control pore and 1.0 ml to medium control pore).
2. Add 10^4CCU/ml Uu inoculum 0.1 ml to each experimental pore. The final dose in the pore is 10^3CCU/ml (the medium control pore will not be added with inoculum).
3. Divide into 3 groups (100 μg/ml, 10 μg/ml and 1 μg/ml antibiotic stock solution), Use aseptic Tip to add antibiotic for test to each pore: 100 μl, 50 μl, 25 μl, 12.5 μl according to the double degradation concentration gradient. (The inoculum and medium control pores will not be added with the antibiotic, and meanwhile the antibiotic control pore is arranged.)
4. Blend all pores evenly. Seal the culture plate by tapes and place it in a 37[…] box for culture.
5. On 17-24 hours after the test, observe and record the Uu growth situation. When Uu inoculum control pore presents a positive growth, the minimal antibiotic concentration, which can suppress the growth of Uu, is the MIC of sample.

[19] = system: adult acute respiratory infections caused by sensitive bacteria; assay: Clinical test versus Azithromycin, multi-center random double blind; type: in vivo; conditions: patients 18 to 65 years
Protocol: Adopt a multi-center, random, two blind, double simulation control test, which is carried out in 5 hospitals concurrently according to the unified clinical testing program.
1. Patients from 18 to 65 years old (men and women);
2. Sensitive acute respiratory infections caused by sensitive bacteria include acute bacterial pharyngitis, acute suppurative tonsillitis, acute tracheobronchitis, mild pneumonia and acute nasosinusitis etc;
3. Any subject shall sign an informed consent before being selected.
4. All subjects shall be contracepted in the research period and within at least 3 months upon being dosed.
1. Those with hepatic or renal insufficiency (Blood Cr>1.5 mg/dl and ALT>normal upper limit)
2. The women in pregnancy or lactation
3. Those with gastrointestinal tract diseases, who cannot take drugs orally.
4. Those who take antibacterial within one week before the selection.
According to statistics on the test results by statistics experts, the clinical efficacy (FAS) is: […]

Structure (SMILES)	ED50 [1] [mg/kg]	ED50 [2] [mg/kg]	ED50 [3] [mg/kg]	ED50 [4] [mg/kg]	ED50 [5] [mg/kg]	ED50 [6] [mg/kg]	ED50 [7] [mg/kg]	MIC [8] [µg/mL]	MIC [9] [µg/mL]	MIC [10] [µg/mL]	MIC [11] [µg/mL]	MIC [12] [µg/mL]	MIC [13] [µg/mL]	MIC50 [14] [µg/mL]	MIC90 [14] [µg/mL]	MIC50 [15] [µg/mL]	MIC90 [15] [µg/mL]	MIC range [16] [µg/mL]	MIC50 [16] [µg/mL]	MIC90 [16] [µg/mL]	other results
COC1C(OC(C)=O)CC(=O)OC(C)C/C=C/C=C/C(OC2CCC(N(C)C)C(C)O2)C(C)CC(CC=O)C1OC1OC(C)C(OC2CC(C)(O)C(OC(=O)CC(C)C)C(C)O2)C(N(C)C)C1O (stereo not drawn) [Levoisovalerylspiramycin II, levoisovalerylspiramycin II]	8.98	8.99	13.1	63.2	52.8	24.6	70.2	0.06 (≈ 0.0619 µM)	0.12 (≈ 0.124 µM)	0.12 (≈ 0.124 µM)	0.25 (≈ 0.258 µM)	0.25 (≈ 0.258 µM)	0.5 (≈ 0.516 µM)	0.25 (≈ 0.258 µM)	32 (≈ 33 µM)	1 (≈ 1.03 µM)	16 (≈ 16.5 µM)	0.03 to 32	0.12 (≈ 0.124 µM)	1 (≈ 1.03 µM)	MIC [17]: ≤ 0.016 µg/mL; MIC ([18]; Mycoplasma, determined 4 times, final MIC (24 h), read-out: MIC): 0.025 to 0.125 µg/mL (≈ 0.0258 to 0.129 µM); Uu resistant effect [18]: favorable Uu resistant effect; adverse reaction [19]: 2.5%; clearance of pathogens [19]: 97.56%; clinical efficacy (FAS) [19]: 92.30%
CCC(=O)OC1CC(=O)OC(C)C/C=C/C=C/C(OC2CCC(N(C)C)C(C)O2)C(C)CC(CC=O)C(OC2OC(C)C(OC3CC(C)(O)C(OC(=O)CC(C)C)C(C)O3)C(N(C)C)C2O)C1OC (stereo not drawn) [Levoisovalerylspiramycin III, levoisovalerylspiramycin III]	8.98	8.99	13.1	63.2	52.8	24.6	70.2	0.06 (≈ 0.061 µM)	0.12 (≈ 0.122 µM)	0.12 (≈ 0.122 µM)	0.25 (≈ 0.254 µM)	0.25 (≈ 0.254 µM)	0.5 (≈ 0.509 µM)	0.25 (≈ 0.254 µM)	32 (≈ 32.5 µM)	2 (≈ 2.03 µM)	64 (≈ 65.1 µM)	0.03 to 32	0.12 (≈ 0.122 µM)	1 (≈ 1.02 µM)	MIC [17]: 0.016 µg/mL (≈ 0.0163 µM); Uu resistant effect [18]: favorable Uu resistant effect; adverse reaction [19]: 2.5%; clearance of pathogens [19]: 97.56%; clinical efficacy (FAS) [19]: 92.30%
